Data on 42 compounds can be found in patent publication US20250171460A1, “INDUCERS OF KLF2 AND METHODS OF USE THEREOF” (Riparian Pharmaceuticals, Inc., priority 2022, published 2025).

This experiment concerns primary human endothelial cells expressing luciferase under the control of the KLF2 promoter. The experiment can be described thus: KLF2 Induction Cell Based Bioassay (luciferase reporter). The text has this: In endothelial cell culture media, a stock of the highest working concentration was made at no more than 1% DMSO vehicle. The working stock was then serially diluted 1:2 to make an 11-point concentration response curve. Included in the 96-well plate were 2 reference compounds with known potencies. A DMSO column was included in the 96-well plate at the highest percent vehicle of the working stocks. The 96-well cell culture plate of primary human endothelial cells expressing luciferase under the control of the KLF2 promoter was dosed with 200 μL per well of the dilution series as well as the DMSO control column. The assay plate was incubated at 37° C. for 24 hours. The supernatant was collected at 24 hours.
20 μL of the supernatant was then placed in a 384-well plate with optical duplicates. The corners of the plate received 20 μL of the Gaussia Luciferase Enzyme positive control, as well as 20 μL of the 50 μM Coelenterizine substrate. The plate read is then calibrated using the control, and read using a Molecular Devices SpectraMax iD5, providing luminescence in relative light units (RLU). The plate reader injected 20 μL of the 50 μM Coelenterizine substrate immediately before taking the RLU measurement for each well.
The sample signals were then normalized to the average signal of the DMSO column, as well as to the maximum signal of one of the reference compounds, as shown in the equations below: […]
The EC50 of each compound is then defined as when the concentration response curve passes 0.5.

[1] abbreviates: Homo sapiens, Endothelial cell, 24 h, KLF2 promoter luciferase, 24 hours, 11-point concentration response, read-out: Activity Range (EC50).
The mark [2] stands for this setting: Homo sapiens, Endothelial cell, Bioactivity of stereoisomers: R isomer, read-out: Bioactivity Bucket, R.

Each structure is given as a SMILES string. Like-named read-outs stand apart in the source and are kept apart here.

On to `COCCN1C(=O)c2oc3cc(C(=O)NC4(C)COC4)ccc3c2OCC1(C)C(=O)NCc1cc(F)ccc1OC` (centres unmarked) [Example 74], for which, under setting [1], the EC50 lay within 501 to 5000 nM. With `COCCN1C(=O)c2oc3cc(C(=O)NC4CCC4)ccc3c2OCC1(C)C(=O)NCc1cc(F)ccc1OC` (centres unmarked) [Example 75], the EC50 under setting [1] is 51 to 500 nM.

In the case of `COCCN1C(=O)c2oc3cc(C(=O)NC4(C)COC4)ccc3c2OCC1(C)C(=O)NCc1ccc(F)cc1OC` (centres unmarked) [Example 76], the EC50 under setting [1] was in the range of 51 to 500 nM. Turning to `COCCN1C(=O)c2oc3cc(C(=O)NC4CCC4)ccc3c2OCC1(C)C(=O)NCc1ccc(F)cc1OC` (centres unmarked) [Example 77], under setting [1], the EC50 is 51 to 500 nM. On the same count and under the same terms, with `COc1cccnc1CNC(=O)C1(C)COc2c(oc3cc(C(=O)NC4(C)COC4)ccc23)C(=O)N1[C@H]1C[C@@H](OC)C1` (some centres unmarked) [Example 78] the figure was 51 to 500 nM. Take `COCCN1C(=O)c2oc3cc(C(=O)NC4(C)COC4)ccc3c2OC[C@]1(C)C(=O)NCc1c(F)cccc1OC` [Example 79]: the EC50 lay within 51 to 500 nM under setting [1] and 51 to 500 nM under setting [2].

Take `COc1ccc(F)cc1CNC(=O)C1(C)COc2c(oc3cc(C(=O)NC4CCC4)ccc23)C(=O)N1[C@H]1C[C@H](OC)C1` (some centres unmarked) [Example 80]: the EC50 under setting [1] fell in the range of 501 to 5000 nM. On to `COc1ccc(F)c(F)c1CNC(=O)C1(C)COc2c(oc3cc(C(=O)NC4CCC4)ccc23)C(=O)N1[C@H]1C[C@@H](OC)C1` (some centres unmarked) [Example 82], for which the EC50 under setting [1] fell in the range of 51 to 500 nM. Regarding `COc1ccc(F)c(F)c1CNC(=O)C1(C)COc2c(oc3cc(C(=O)NC4(C)COC4)ccc23)C(=O)N1[C@H]1C[C@@H](OC)C1` (some centres unmarked) [Example 83], under setting [1], the EC50 is 51 to 500 nM. Still for that read-out and setting: as for `COc1cccc(Cl)c1CNC(=O)C1(C)COc2c(oc3cc(C(=O)NC4CCC4)ccc23)C(=O)N1[C@H]1C[C@@H](OC)C1` (some centres unmarked) [Example 84], the figure is at most 50 nM; as for `COc1cccc(Cl)c1CNC(=O)C1(C)COc2c(oc3cc(C(=O)NC4(C)COC4)ccc23)C(=O)N1[C@H]1C[C@@H](OC)C1` (some centres unmarked) [Example 85], at most 50 nM; as for `COc1cccc(Cl)c1CNC(=O)C1(C)COc2c(oc3cc(C(=O)NC4(C)COC4)ccc23)C(=O)N1CC1CC1` (centres unmarked) [Example 86], at most 50 nM. Same read-out and setting: as for `COc1cccc(Cl)c1CNC(=O)C1(C)COc2c(oc3cc(C(=O)NC4CCC4)ccc23)C(=O)N1CC1CC1` (centres unmarked) [Example 87], the figure is at most 50 nM. Still for that read-out and setting: with `COCCN1C(=O)c2oc3cc(C(=O)NC4CCC4)ccc3c2OCC1(C)C(=O)NCc1c(Cl)cccc1OC` (centres unmarked) [Example 88] the figure was at most 50 nM; with `COc1cccc(F)c1CNC(=O)C1(C)COc2c(oc3cc(C(=O)NC4(C)COC4)ccc23)C(=O)N1CC1CC1` (centres unmarked) [Example 89], at most 50 nM; with `COCCN1C(=O)c2oc3cc(C(=O)NC4CCC4)ccc3c2OCC1(C)C(=O)NCc1c(C#N)cccc1OC` (centres unmarked) [Example 90], at most 50 nM.

Consider `COc1cccc(F)c1CNC(=O)C1(C)COc2c(oc3cc(C(=O)NC4CCC4)ccc23)C(=O)N1[C@H]1C[C@@H](OC)C1` (some centres unmarked) [Example 91], for which the EC50 under setting [1] is at most 50 nM. Still for that read-out and setting: with `COc1ccc(F)cc1CNC(=O)C1(C)COc2c(oc3cc(C(=O)NC4CCC4)ccc23)C(=O)N1CC1CC1` (centres unmarked) [Example 92] the figure was at most 50 nM; with `COc1cccc(F)c1CNC(=O)C1(C)COc2c(oc3cc(C(=O)NC4CCC4)ccc23)C(=O)N1CC1CC1` (centres unmarked) [Example 93], at most 50 nM. For `COCCN1C(=O)c2oc3cc(C(=O)NC4CCC4)ccc3c2OC[C@]1(C)C(=O)NCc1c(F)cccc1OC` [Example 94], the EC50 under setting [1] was at most 50 nM.

For the compound `COCCN1C(=O)c2oc3cc(C)ccc3c2OCC1(C)C(=O)NCc1ccccc1OC` (centres unmarked) [Example 95, N-(2-methoxybenzyl)-4-(2-methoxyethyl)-3,8-dimethyl-5-oxo-2,3,4,5-tetrahydrobenzofuro[2,3-f][1,4]oxazepine-3-carboxamide], the EC50 under setting [1] lay within 501 to 5000 nM. On the same count and under the same terms, with `C=C(C)c1ccc2c3c(oc2c1)C(=O)N(CCOC)C(C)(C(=O)NCc1ccccc1OC)CO3` (centres unmarked) [Example 96] the figure was 501 to 5000 nM; with `COCCN1C(=O)c2oc3cc(C4CC4)ccc3c2OCC1(C)C(=O)NCc1ccccc1OC` (centres unmarked) [Example 97], 501 to 5000 nM; with `COCCN1C(=O)c2oc3cc(-c4cscn4)ccc3c2OCC1(C)C(=O)NCc1ccccc1OC` (centres unmarked) [Example 99], 501 to 5000 nM. The same measure, in the same setting: as for `COCCN1C(=O)c2oc3cc(-c4cncs4)ccc3c2OCC1(C)C(=O)NCc1ccccc1OC` (centres unmarked) [Example 100], the figure is 51 to 500 nM. On the same count and under the same terms, as for `COCCN1C(=O)c2oc3cc(-c4nccs4)ccc3c2OCC1(C)C(=O)NCc1ccccc1OC` (centres unmarked) [Example 101], the figure is 51 to 500 nM. For the compound `[2H]C([2H])([2H])N(C(=O)CN1C(=O)c2oc3ccc(Cl)cc3c2OC[C@]1(C)C(=O)NCc1c(F)cccc1OC)C([2H])([2H])[2H]` [Example 102, (R)-4-(2-(bis(methyl-d3)amino)-2-oxoethyl)-9-chloro-N-(2-fluoro-6-methoxybenzyl)-3-methyl-5-oxo-2,3,4,5-tetrahydrobenzofuro[2,3-f][1,4]oxazepine-3-carboxamide], the EC50 was 51 to 500 nM under setting [1] and 51 to 500 nM under setting [2].

Consider `[2H]C([2H])([2H])N(C(=O)CN1C(=O)c2oc3ccc(Cl)cc3c2OC[C@]1(C)C(=O)NCc1ncccc1OC)C([2H])([2H])[2H]` [Example 103], for which the EC50 under setting [1] was 51 to 500 nM. As to `COc1cccnc1CNC(=O)[C@@]1(C)COc2c(oc3ccc(Cl)cc23)C(=O)N1CC(=O)N1CC(O)C1` [Example 104], under setting [1], the EC50 lay within 51 to 500 nM. In the case of `COc1cccc(F)c1CNC(=O)[C@@]1(C)COc2c(oc3ccc(Cl)cc23)C(=O)N1CC(=O)N1CC(O)C1` [Example 105], the EC50 under setting [1] is 51 to 500 nM.

For `COc1cccc(F)c1CNC(=O)C1(C)COc2c(oc3ccc(Cl)cc23)C(=O)N1Cc1ncnn1C` (centres unmarked) [Example 108, 9-chloro-N-(2-fluoro-6-methoxybenzyl)-3-methyl-4-((1-methyl-11H-1,2,4-triazol-5-yl)methyl)-5-oxo-2,3,4,5-tetrahydrobenzofuro[2,3-f][1,4]oxazepine-3-carboxamide], the EC50 (KLF2 promoter luciferase, 24 hours, 11-point concentration response, read-out: Activity Range (EC50)) lay within 51 to 500 nM. Regarding `[2H]C([2H])([2H])N(C(=O)CN1C(=O)c2oc3ccc(Cl)cc3c2OCC1(C)C(=O)NCc1ncccc1OCC)C([2H])([2H])[2H]` (centres unmarked) [Example 109, 4-(2-(bis(methyl-d3)amino)-2-oxoethyl)-9-chloro-N-((3-ethoxypyridin-2-yl)methyl)-3-methyl-5-oxo-2,3,4,5-tetrahydrobenzofuro[2,3-f][1,4]oxazepine-3-carboxamide], the EC50 under setting [1] fell in the range of 51 to 500 nM. On the same count and under the same terms, with `[2H]C([2H])([2H])N(C(=O)CN1C(=O)c2oc3ccc(Cl)cc3c2OCC1(C)C(=O)NCc1ncccc1OC(C)C)C([2H])([2H])[2H]` (centres unmarked) [Example 110] the figure was 501 to 5000 nM; with `COc1cccc(F)c1CNC(=O)C1(C)COc2c(oc3ccc(F)cc23)C(=O)N1CC(=O)N(C)CCO` (centres unmarked) [Example 111, 9-fluoro-N-(2-fluoro-6-methoxybenzyl)-4-(2-((2-hydroxyethyl)(methyl)amino)-2-oxoethyl)-3-methyl-5-oxo-2,3,4,5-tetrahydrobenzofuro[2,3-f][1,4]oxazepine-3-carboxamide], 51 to 500 nM; with `COc1cccc(F)c1CNC(=O)C1(C)COc2c(oc3ccc(F)cc23)C(=O)N1CC(=O)N(C)C` (centres unmarked) [Example 112, 4-(2-(dimethylamino)-2-oxoethyl)-9-fluoro-N-(2-fluoro-6-methoxybenzyl)-3-methyl-5-oxo-2,3,4,5-tetrahydrobenzofuro[2,3-f][1,4]oxazepine-3-carboxamide], 51 to 500 nM. For the compound `COc1ccccc1CNC(=O)C1(C)COc2c(oc3ccc(F)cc23)C(=O)N1CC(=O)C1CC1` (centres unmarked) [Example 113, 4-(2-cyclopropyl-2-oxoethyl)-9-fluoro-N-(2-methoxybenzyl)-3-methyl-5-oxo-2,3,4,5-tetrahydrobenzofuro[2,3-f][1,4]oxazepine-3-carboxamide], the EC50 under setting [1] fell in the range of 51 to 500 nM. For `[2H]C([2H])([2H])N(C(=O)CN1C(=O)c2oc3ccc(F)cc3c2OC[C@]1(C)C(=O)NCc1c(F)cccc1OC)C([2H])([2H])[2H]` [Example 114, (R)-4-(2-(bis(methyl-d3)amino)-2-oxoethyl)-9-fluoro-N-(2-fluoro-6-methoxybenzyl)-3-methyl-5-oxo-2,3,4,5-tetrahydrobenzofuro[2,3-f][1,4]oxazepine-3-carboxamide], the EC50 under setting [1] fell in the range of 51 to 500 nM.

With `COc1cccnc1CNC(=O)[C@@]1(C)COc2c(oc3ccc(F)cc23)C(=O)N1CC(=O)N1CC(F)C1` [Example 115], the EC50 under setting [1] is 51 to 500 nM. On the same count and under the same terms, as for `COc1cccnc1CNC(=O)[C@@]1(C)COc2c(oc3ccc(F)cc23)C(=O)N1CC(=O)N1CC(F)(F)C1` [Example 116], the figure is 51 to 500 nM; as for `COc1cccc(F)c1CNC(=O)[C@@]1(C)COc2c(oc3ccc(F)cc23)C(=O)N1CC(=O)N1CC[C@H]1CO` [Example 117], 51 to 500 nM. The same measure, in the same setting: with `COc1cccc(F)c1CNC(=O)[C@@]1(C)COc2c(oc3ccc(F)cc23)C(=O)N1Cc1nnn(CCO)n1` [Example 118] the figure was 51 to 500 nM; with `COc1ccc(F)cc1CNC(=O)[C@@]1(C)COc2c(oc3ccc(F)cc23)C(=O)N1Cc1nnn(CCO)n1` [Example 119], 51 to 500 nM.
